Measured values taken from patent US20260274794A1, “COMPOUNDS, COMPOSITIONS, AND METHOD OF INHIBITING TAU PROTEIN AND ALPHASYNUCLEIN AGGREGATION” (Purdue Research Foundation, priority 2023, published 2026).

The compounds below were run against T1, α-synuclein (α-syn) (Homo sapiens, UniProt P37840) (assay: Thioflavin T (ThT) fluorescence assay of α-syn fibril formation). Conditions: compound 100 μM; ThT fluorescence intensity at plateau phase, control = 100%.
T1 construct: purchased rPeptide, LLC (Watkinsville, GA)
Format: biochemical
Method: (§1) ThT fluorescence is routinely established assay to follow the kinetics of α-syn fibril formation with different drug candidate treatments. Compounds were first tested at a final of concentration of 100 μM and α-syn and 2N4R tau were prepared at 2 μM and 6 μM, respectively. Compounds with highest anti-fibrillary activity were tested at 3.125, 6.25, 12.5, 25, 50, and 100 μM to obtain dose-response curves.
For the α-syn ThT assay, ThT was used at a final concentration of 20 μM. α-Syn was dissolved in 20 mM Tris-HCl (pH 7.4) supplemented with 100 mM NaCl to a stock solution of 280 μM (1 mg/250 μL) prior to resuspension in ThT buffer to obtain a final concentration of 2 μM. Compounds and ThT were first added to the wells. The kinetics of fibril formation begin when the α-syn was solubilized in the ThT buffer (10 mM PBS buffer (pH 7.4), supplemented with 0.5 mM SDS and 300 mM NaCl) and added to a non-treated black 96 well microplate with a transparent flat bottom. Each well was filled with a maximum volume of 150 μL buffer with one 3 mm borosilicate bead. The background fluorescence signal consisted of ThT in buffer and 0.25% DMSO without α-syn. The excitation and emission wavelengths were set at 440 and 485 nm, respectively, with a Synergy HT multi-mode microplate reader (BioTek, Winooski, VT). Measurements were taken at 37° C. every 20 minutes over 50 hours of shaking prior to reading the plate. Samples were measured in three replicates and the experiments were repeated three times using different α-syn stock solutions. For each time point, the background fluorescence signal was subtracted. Arbitrary units of fluorescence were calculated from the mean values normalized against the maximum value in each completed assay. Arbitrarily, the maximum value (100%) for the fluorescence intensity was established for α-syn.
Compounds were tested at 100 μM with α-syn at 6 μM, resulting in a molar ratio of approximately 1:16 (protein:compound). The plateau phase of sigmoidal kinetics is of particular interest because it is the phase in which mature fibrils form and where aggregation and disaggregation are at equilibrium with each other; therefore, the fluorescence intensity between multiple compounds at the plateau phase can be compared to identify the compounds with the most promising anti-aggregation activity (Table 1, column α-syn ThT %). […] Compound 17 was the best representative of the 5-aminoindole series and moved to the tier-2 assays, even though the resulting ThT percentage of fluorescence intensity was 10% higher than the cut off. These compounds were then tested on tau 2N4R ThT fluorescence assays.

remaining activity at 100 µM [%] | α-Syn ThT% [%] | Structure (SMILES)
102 ± 13.3 |  | O=C(Nc1ccc2[nH]ccc2c1)c1ccccc1 [Compound 10, N-(1H-indol-5-yl)benzamide]
67.5 ± 16.3 |  | O=C(Nc1ccc2[nH]ccc2c1)c1ccc(Cl)cc1 [Compound 12, 4-chloro-N-(1H-indol-5-yl)benzamide]
48.5 ± 1.7 |  | O=C(Nc1ccc2[nH]ccc2c1)c1ccc(F)cc1 [Compound 16, 4-fluoro-N-(1H-indol-5-yl)benzamide]
40.5 ± 2.3 |  | O=C(Nc1ccc2[nH]ccc2c1)c1cccs1 [Compound 9, N-(1H-indol-5-yl)thiophene-2-carboxamide]
40 |  | Nc1cccc(C(=O)Nc2ccc3[nH]ccc3c2)c1 [Compound 17, 3-amino-(1H-indol-5-yl)benzamide]
64 |  | O=C(Nc1cccc2[nH]ccc12)c1cccs1 [Compound 1]
48.6 ± 2.6 |  | COc1cccc(C(=O)Nc2ccc3[nH]ccc3c2)c1 [Compound 11, N-(1H-indol-5-yl)-3-methoxybenzamide]

Further lines, the compound ahead of its results:

Structure (SMILES) | remaining activity at 100 µM [%] | α-Syn ThT% [%]
COc1cccc(C(=O)Nc2cccc3[nH]ccc23)c1 [Compound 3] | 43 | 
O=C(Nc1ccc2c(c1)Cc1ccccc1-2)c1ccc(Cl)cc1 [Compound 18, 4-chloro-N-(9H-fluoren-2-yl)benzamide] | 69.4 | 69.4 ± 6.70
O=C(Nc1cccc2[nH]ccc12)c1ccc(C(F)(F)F)cc1 [Compound 6, N-(1H-indol-4-yl)-4-(rifluoromethyl)benzamide] | ≤ 30 | 
N#Cc1ccc(C(=O)Nc2ccc3[nH]ccc3c2)cc1 [Compound 15, 4-cyano-N-(1H-indol-5-yl)benzamide] | 62.7 ± 4.1 | 
N#Cc1ccc(C(=O)Nc2cccc3[nH]ccc23)cc1 [Compound 7, 4-cyano-N-(1H-indol-4-yl)benzamide] | ≤ 30 | 
O=C(Nc1cccc2[nH]ccc12)c1ccc(Cl)cc1 [Compound 4, 4-chloro-N-(1H-indol-4-yl)benzamide] | ≤ 30 | 
O=C(Nc1cccc2[nH]ccc12)c1ccccc1Cl [Compound 5, 2-chloro-N-(1H-indol-4-yl)benzamide] | ≤ 30 | 

Each compound was assayed against T2, tau isoform 2N4R (Homo sapiens, UniProt P10636) (assay: ThT fluorescence assay of tau isoform 2N4R fibril formation). Conditions: compound 100 μM, tau 2N4R 6 μM.
T2 construct: made in house; host or cells: E. coli BL21 (DE3), vector pRK172
Format: biochemical
Method: as §1
Concerning the non-phosphorylated tau (isoform 2N4R) kinetics of fibril formation, ThT was performed with the tau protein solution was diluted to a final concentration of 6 μM in PBS (pH 7.4) supplemented with 1.5 μM heparin, 20 μM ThT, 2.5 mM DTT, and 100 μM compound. Aliquots of the diluted protein solution (100 μL each) were pipetted into the wells of a 96-well plate, and a Teflon ball was added to each well. The plate was incubated at 37° C. with constant shaking at 1,000 rpm in a Tecan Stark plate reader. ThT fluorescence was measured every 15 min with excitation and emission wavelengths of 440 nm and 480 nm, and the data were plotted using GraphPad Prism.
Various structural analogs were first tested at a final concentration of 100 μM in the presence of tau 2N4R at 6 μM. Compounds 2, 4-8, and 17 were pre-selected with α-syn ThT assay prior to evaluation on the tau isoform 2N4R.

T2 sequence (P10636 1-441 isoform P10636-8): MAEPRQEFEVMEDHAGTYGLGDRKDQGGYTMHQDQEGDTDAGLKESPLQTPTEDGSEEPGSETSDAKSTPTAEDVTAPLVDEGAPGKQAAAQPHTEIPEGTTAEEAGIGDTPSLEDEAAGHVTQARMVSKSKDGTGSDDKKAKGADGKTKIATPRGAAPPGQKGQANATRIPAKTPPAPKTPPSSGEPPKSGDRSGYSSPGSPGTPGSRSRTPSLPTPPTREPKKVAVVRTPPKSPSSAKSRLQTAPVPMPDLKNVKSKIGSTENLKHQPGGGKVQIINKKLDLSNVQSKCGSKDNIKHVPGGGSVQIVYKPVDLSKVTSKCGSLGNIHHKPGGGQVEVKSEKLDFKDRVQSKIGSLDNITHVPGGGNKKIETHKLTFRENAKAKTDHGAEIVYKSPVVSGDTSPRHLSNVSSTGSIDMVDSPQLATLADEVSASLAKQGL

effect on tau isoform 2N4R fibril formation (ThT) | Structure (SMILES)
weaker anti-fibrilization effect | O=C(Nc1cccc2[nH]ccc12)c1ccc(C(F)(F)F)cc1 [Compound 6, N-(1H-indol-4-yl)-4-(rifluoromethyl)benzamide]
good inhibitory effect | N#Cc1ccc(C(=O)Nc2cccc3[nH]ccc23)cc1 [Compound 7, 4-cyano-N-(1H-indol-4-yl)benzamide]
good inhibitory effect | O=C(Nc1cccc2[nH]ccc12)c1ccc(Cl)cc1 [Compound 4, 4-chloro-N-(1H-indol-4-yl)benzamide]
good inhibitory effect | O=C(Nc1cccc2[nH]ccc12)c1ccccc1Cl [Compound 5, 2-chloro-N-(1H-indol-4-yl)benzamide]

What follows are compounds tested against T2, tau isoform 2N4R (assay: PICUP assay of tau isoform 2N4R oligomerization). Conditions: compound 50 μM.
Format: biochemical
Method: To force the oligomerization by cross-linking, α-syn (from Rpeptide, LLC) and tau isoform 2N4R were diluted in 10 mM phosphate buffer (pH 7.4) to reach a final concentration of 10 μM [27]. Different compounds were added to the protein solution at a final concentration of 50 μM, resulting in a molar ratio of 1:5. To confirm the gradual effect of the compounds on the inhibition of α-syn oligomerization, compounds were tested at final concentration of 3.125, 6.25, 12.5, 25, and 50 μM. The controls consisted of samples without light exposition, without Ru(bpy), and without compound (i.e., 0.125% DMSO). The cross-linking reaction was initiated by the addition of 2 μL of Ru(bpy) (300 μM final concentration) and 2 μL ammonium persulfate (6 mM final concentration). Samples were irradiated immediately. Light exposition was of 1 second duration for ca-syn and 3 second duration for tau isoform 2N4R, with a 53 W (120 V) incandescent lamp installed in a homemade dark-box. Each tube contained a final volume of 20 μL. After irradiation, 8.3 μL. of Lammeli loading buffer containing 15% β-mercaptoethanol was immediately added to the solution, followed by incubation at 95° C. for 10 minutes. The cross-linked samples were separated on a 16% SDS-Page gel and visualized by Coomassie blue staining.
One end point used to verify the propensity of misfolded protein in the drug discovery field is the inhibition of oligomer formation. The photo-induced cross-linking of unmodified proteins (PICUP) assay was used to investigate α-syn (60 μM) and tau isoform 2N4R (6 μM) oligomerization in the presence of eight amide compounds (2, 4, 5, 6, 7, 8, 13, and 17 at 50 μM, i.e., ~molar ratio 1:8 for tau). After being subjected to short light exposure, α-syn and tau were cross-linked and Coomassie-stained resolved as a higher molecular weight compared to control (0.125% DMSO). […] Compound 13 was used as a negative control for the α-syn PICUP.
PICUP assays were performed with different concentrations (50 μM, 25 μM, 12.5 μM, 6.25 μM, 3.125 μM; control=0.125% DMSO) for each lead compound.

tau isoform 2N4R oligomerization (PICUP crosslinking) | Structure (SMILES)
strongest oligomer band | O=C(Nc1cccc2[nH]ccc12)c1ccc(C(F)(F)F)cc1 [Compound 6, N-(1H-indol-4-yl)-4-(rifluoromethyl)benzamide]
